This is an account of results in patent US9389223B2, “Pharmacodynamic assays” (The United States of America, as represented by the …, priority 2004, dated 2016).

One assay has as its system Hsp70. The assay is described as follows: Flow cytometry of Hsp70 levels in K562 cells. It counts as cell-based. As to conditions: single drug, relative to control cells. An excerpt:
(§1) Leukemia K562 cell line samples containing approximately 5×10^6 to 1×10^7 cells were exposed to either the anti-cancer drug 17-allylaminogeldanamycin (17-AAG) or one of the deacetylase inhibitors MS-275 or trichostatin A (TSA). Some samples received both 17-AAG and TSA or both 17-AAG and MS-275. Control samples received no drug. Administration of the 17-AAG anti-cancer drug led to functional changes in Hsp90 and increased expression of Hsp70. […] TSA is a deacetylase inhibitor that can affect acetylation of numerous proteins. In this study, the effect of TSA on tubulin acetylation was observed using an antibody that specifically binds to acetylated tubulin.
(§2) After treatment with the various drugs, the cells were resuspended in fixation solution (0.4% paraformaldehyde in PBS), incubated at 37° C. for 5-10 minutes and washed with wash buffer. The fixed cells were then resuspended in permeabilization solution (4% Triton X-100 in wash buffer) and incubated at room temperature for 5 minutes. Cells were incubated for 1 hour at room temperature with antibodies to the various pharmacodynamic markers. Several cell samples were incubated with antibodies to several markers at once. […] Fluorescence associated with the cells was detected and quantified by flow cytometry.

The test system of another assay is acetylated lysine. In words: Flow cytometry of acetylated lysine in K562 cells co-stained for activated caspase 3. It is filed as cell-based, human. As to conditions: K562, 1 μM, 48 hours. How it is done: (§3) K562 chronic myelogenous leukemia cells were incubated with vehicle alone, 1 μM imatinib (the anticancer drug also known as Gleevec), 1 μM MS-275, or both for 48 hours. The cells were then stained for acetylated lysine as described above and co-stained with antibody to activated caspase 3 as an indicator of cells undergoing apoptosis. Dot plots display acetylated lysine on the x-axis and activated caspase 3 on the y-axis. The multiparameter flow cytometric assay is a powerful tool to monitor pharmacodynamic changes induced by anticancer drugs used in monotherapy or combination therapy protocols. HDAC inhibitors have been reported to promote imatinib-mediated apoptosis in Bcr/Abl+ human myeloid leukemia cells, including imatinib-resistant cells. The effect of MS-275 and imatinib were therefore examined, alone and in combination, on apoptosis in the Bcr/Abl+ cell line K562. Because both MS-275 and imatinib have been reported to induce apoptosis associated with caspase 3 activation, an antibody was used that specifically recognizes activated caspase 3 in a flow assay. This caspase 3 flow assay effectively monitors drug-induced apoptosis. When combined detection of acetylated lysine, this flow assay permitted simultaneous monitoring of apoptosis (caspase 3) and acetylated lysine.

In a further assay the test system is acetylated tubulin. In words: Flow cytometry of acetylated tubulin in K562 cells. It counts as cell-based. As to conditions: single drug.
Excerpt: as §1, §2

Assay [1] has as its system K562 chronic myelogenous leukemia cells. In words: Flow cytometry of apoptosis (activated caspase 3) in K562 cells. It counts as cell-based, human. As to conditions: K562, 1 μM, 48 hours, single drug. The procedure:
as §3

As for `C=CCNC1=C2C[C@@H](C)C[C@H](OC)[C@H](O)[C@@H](C)/C=C(\C)[C@H](OC(N)=O)[C@@H](OC)/C=C\C=C(/C)C(=O)NC(=CC1=O)C2=O` [17-AAG, 17-allylaminogeldanamycin], the “levels of Hsp70” value in the assay on Hsp70 is “increased levels of Hsp70”. For `Nc1ccccc1NC(=O)c1ccc(CNC(=O)OCc2cccnc2)cc1` [MS-275, N-(2-aminophenyl)-4-[N-(pyridin-3-ylmethoxycarbonyl)aminomethyl]benzamide], the “cells with strongly upregulated acetylation” value in the assay with acetylated lysine is listed as “over 50%”. As to `CC(/C=C/C(=O)NO)=C\[C@@H](C)C(=O)c1ccc(N(C)C)cc1` [TSA, trichostatin A], the “levels of acetylated tubulin” value in the assay with acetylated tubulin is “increased levels of acetylated tubulin”. Regarding `Cc1ccc(NC(=O)c2ccc(CN3CCN(C)CC3)cc2)cc1Nc1nccc(-c2cccnc2)n1` [imatinib, 4-[(4-Methyl-1-piperazinyl)methyl]-N-[4-methyl-3-[[4-(3-pyridinyl)-2-yrimidinyl]amino]-phenyl]benzamide methanesulfonate], the “percent of apoptotic cells (activated caspase 3)” value in assay [1] is listed as “increased the percent of apoptotic cells”. Besides, in the assay on acetylated lysine, the “acetylation of the activated caspase 3 positive cell population” value was “lost acetylation”.
